Assay results published in EP0462123B1, “UV-ABSORBING COMPOUNDS AND COMPOSITIONS” (AUSTRALIAN INSTITUTE OF MARINE SCIENCE, priority 1989, dated 1990).

What was measured:
[1] = log P (octanol/water partition coefficient) by HPLC method of Leahy, Taylor and Wait; format: physicochemical; settings: octanol in conjunction with water
Description: Water resistance of compounds of formula I may be evaluated by reference to the partition coefficient of the compounds using a non-polar solvent such as octanol in conjunction with water. The term log P, where P is the partition coefficient, where used herein refers to the log P value determined by the HPLC method of David E Leahy, Peter J Taylor and Alan R Wait, Ouant. Struct.-Act Relat., 8, 17-31 (1989) at pages 23 and 24. Log P may be used to directly compare the lipophilicity of a variety of molecules as described by Hansch, C., and Leo, A. J., Substituent Constants for Correlation Analysis in Chemistry and Biology, John Wiley, New York 1979.
Struct. Act Relat., 8, 17-31 (1989) and the results are recorded in Table 6.

[2] = E1%: relative UV absorbance of a 1% w/w solution; format: physicochemical; settings: relative measure of the UV absorbance of a 1% w/w solution of the compound
Description: This example compares the ultraviolet light absorbing properties and water resistance properties of compounds of the invention.
E1% is a relative measure of the UV absorbance of a 1% w/w solution of the compound.

| SMILES | chromatographic logP [1] | E1% [2] |
| --- | --- | --- |
| CCC(=O)C1=CN(CC(C)C)CCC1(C)C [Compound 1, I-(2-Methylpropyl)-3-propionyl-4,4-dimethyl-1,4,5,6-tetrahydropyridine] | 3.2 | 131 |
| CC(=O)C1=CN(CC(C)C)CCC1(C)C [Compound 2, I-(2-Methylpropyl) -3-acetyl-4,4-dimethyl-1,4,5,6-tetrahydropyridine] | 2.7 | 140 |
| CCCC(=O)C1=CN(CC(C)C)CCC1(C)C [Compound 3, 1-(2-Methylpropyl) -3-butyryl-4,4-dimethyl-1,4,5,6-tetrahydropyridine] | 3.7 | 124 |
| CC(C)CN1C=C(C(=O)C(F)(F)F)C(C)(C)CC1 [Compound 4, 1-(2-Methylpropyl) -3-trifluoroacetyl-4,4-dimethyl-1,4,5,6-tetrahydropyridine] | 3 | 112 |
| CCCCCCCC(=O)C1=CN(CC(C)C)CCC1(C)C [Compound 5, 1-(2-Methylpropyl) -3-octanoyl-4,4-dimethyl-1,4,5,6-tetrahydropyridine] | 5.8 | 100 |
| CCCCCCCCCCCCCCCCN1C=C(C(=O)CC)C(C)(C)CC1 [Compound 6, 1-Palmityl-3-propionyl-4,4-dimethyl-1,4,5,6-tetrahydropyridine] | 9.4 | 75 |
| CCCCCCCC(=O)C1=CN(CC)CCC1(C)C [Compound 7, 1-Ethyl-3-octanoyl--4,4-dimethyl-1,4,5,6-tetrahydropyridine] | 4.8 | 110 |
| CCCCC(CC)CN1C=C(C(=O)CC)C(C)(C)CC1 (centres unmarked) [Compound 8, 1-(2-Ethylhexyl)-3-propionyl-4,4-dimethyl-1,4,5,6-tetrahydropyridine] | 5.3 | 105 |
| CCCCCCCCCC(=O)C1=CN(CC)CCC1(C)C [Compound 9, I-Ethyl-3-decanoyl--4,4-dimethyl-1,4,5,6-tetrahydropyridine] | 5.8 | 100 |
| CCCCCCCCCCCCCCCC(=O)C1=CN(CC)CCC1(C)C [Compound 10, 1-Ethyl-3-palmitoyl--4,4-dimethyl-1,4,5,6-tetrahydropyridine] | 8.9 | 77 |
| CCCCCCCCCCCCCC(=O)C1=CN(C)CCC1(C)C [Compound 11, 1-Methyl-3-myristoyl-4,4-dimethyl-1,4,5,6-tetrahydropyridine] | 7.4 | 87 |
| CCCCCCCC(=O)C1=CN(CCCCCCC)CCC1(C)C [Compound 12, 1-Heptyl-3-octanoyl-4,4-dimethyl--1,4,5,6-tetrahydropyridine] | 7.4 | 87 |
| CCCCC(CC)COC(=O)CCC(=O)C1=CN(CC)CCC1(C)C (centres unmarked) [Compound 13, 1-Ethyl-3(2-ethyl-hexylsuccinoyl)--4,4-dimethyl-1,4,5,6-tetrahydropyridine] | 6.9 | 87 |
| CCCCCCCCCC(=O)C1=CN(CCC)CCC1(C)C [Compound 14, 1-Propyl-3-decanoyl-4,4-dimethyl-1,4,5,6-tetrahydropyridine] | 6.3 | 95 |
| CCCCCCCCCC(=O)C1=CN(C(C)C)CCC1(C)C [Compound 15, 1-(-Methylethyl)-3 decanoyl--4,4-dimethyl-1,4,5,6-tetrahydropyridine] | 6.3 |  |
| CCCCCCCCCC(=O)C1=CN(CC(C)C)CCC1(C)C [Compound 16, 1-(2-Methylpropyl) -3-decanoyl--4,4-dimethyl-1,4,5,6-tetrahydropyridine] | 6.9 | 91 |
| CCCCCCCCCCCC(=O)C1=CN(C)CCC1(C)C [Compound 17, 1-Methyl-3-lauroyl--4,4-dimethyl 4,5,6-tetrahydropyridine] | 6.3 | 95 |
| CCCCCCCCCCN1C=C(C(=O)CC)C(C)(C)CC1 [Compound 18, 1-Decyl-3-propionyl--4,4-dimethyl-1,4,5,6-tetrahydropyridine] | 6.3 | 95 |
| CCCCCCCC(=O)C1=CN(C2CCCCC2)CCC1(C)C [Compound 19, 1-Cyclohexyl-3-octanoyl-4,4-dimethyl-1,4,5,6-tetrahydropyridine] | 6.9 | 91 |
| CCCCCCCCCC(=O)C1=CN(C(C)(C)C)CCC1(C)C [Compound 20, 1-(1,1-Dimethyl-ethyl)-3-decanoyl--4,4-dimethyl-1,4,5,6-tetrahydropyridine] | 6.9 | 91 |
| CCCCCCCC(=O)C1=CN(C(C)(C)C)CCC1(C)C [Compound 21, 1-(1,1-Dimethyl-ethyl)-3-octanoyl-4,4-dimethyl-1,4,5,6-tetrahydropyridine] | 5.8 | 100 |
| CCCCCC(=O)C1=CN(C(C)(C)C)CCC1(C)C [Compound 22, 1-(1,1-Dimethyl-ethyl) -3-hexanoyl-4,4-dimethyl-1,4,5,6-tetrahydropyridine] | 4.8 | 110 |
| CCCCCCCC(=O)C1=CN(C(C)C)CCC1(C)C [Compound 23, 1-(1-Methylethyl)-3-octanoyl-4,4-dimethyl-1,4,5,6-tetrahydropyridine] | 5.3 | 105 |
| CC(C)CN1C=C(C(=O)CCCCC(=O)C2=CN(CC(C)C)CCC2(C)C)C(C)(C)CC1 [Compound 24] | 9.4 | 131 |
